The text below walks through data of US6630469B2, “5-HT7 receptor antagonists” (Bristol-Myers Squibb Company, priority 2000, dated 2003).

A value given as a limit tells only on which side of the number the result lay.

The target in the assay is T1, human 5-HT7 receptor (Homo sapiens, UniProt P34969).
T1 construct: expressed in transfected cells; host or cells: CHO cells
T1 sequence (P34969 whole entry): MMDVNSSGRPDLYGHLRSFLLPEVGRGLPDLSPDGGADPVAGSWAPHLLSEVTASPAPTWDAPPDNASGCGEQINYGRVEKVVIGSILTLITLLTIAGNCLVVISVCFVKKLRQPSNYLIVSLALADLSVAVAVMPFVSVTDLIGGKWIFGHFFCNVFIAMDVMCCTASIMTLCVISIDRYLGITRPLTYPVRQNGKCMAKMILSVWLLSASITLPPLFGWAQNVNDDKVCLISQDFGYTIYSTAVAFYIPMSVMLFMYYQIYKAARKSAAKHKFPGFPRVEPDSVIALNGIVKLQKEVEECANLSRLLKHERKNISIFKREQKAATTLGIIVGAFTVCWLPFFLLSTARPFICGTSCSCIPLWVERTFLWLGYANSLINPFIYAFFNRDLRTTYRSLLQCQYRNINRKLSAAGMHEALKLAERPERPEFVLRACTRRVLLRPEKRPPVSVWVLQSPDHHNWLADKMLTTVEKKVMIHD
The experiment in a line: 5-HT7 Receptor Binding Assay. The settings on record: membranes of CHO cells expressing human 5-HT7 receptor; 1 nM 3H-5-carboxamidotryptamine; 25° C., 60 minutes. On the procedure: 5-HT7 Receptor Binding Assay
Membranes are prepared for binding using the human 5-HT7 receptor expressed in CHO cells. Cells are collected and ruptured using a dounce homogenizer. The cells are spun at 18000× g for 10 minutes and the pellet is resuspended in assay buffer, frozen in liquid nitrogen and kept at −80° C. until the day of the assay.
A total of 30 ug protein is used per well. The assay is carried out in 96-deep-well plates. The assay buffer is 50 mM HEPES. The membrane preparation is incubated at 25° C. for 60 minutes with 0.1 nM to 1000 nM test compound and 1 nM ^3H-5-carboxamidotryptamine. 10 uM serotonin is used as blocking agent to determine non-specific binding. The reaction is terminated by the addition of 1 ml of ice cold 5OmM HEPES buffer and rapid filtration through a Brandel Cell Harvester using Whatman GF/B filters. The filter pads are counted in an LKB Trilux liquid scintillation counter. IC50 values are determined using non-linear regression by Exel-fit.
The molecule `CC(Nc1ccnc(NCCc2ccc(O)cc2)n1)c1ccccc1` (centres unmarked) [N^2-[2-(4-Hydroxyphenyl)ethyl]-N^4-(1-phenylethyl)pyrimidine-2,4-diamine] gave an IC50 of at most 50 nM. Molecule `CC(Nc1ccnc(NCCc2ccccn2)n1)c1ccccc1` (centres unmarked) [Compound 12, N^4-(1-Phenylethyl)-N^2-[2-(2-pyridinyl)ethyl]pyrimidine-2,4-diamine] had an IC50 of 51 to 100 nM. For `COc1ccccc1CCNc1nccc(NC(C)c2ccccc2)n1` (centres unmarked) [N^2-[2-(2-Methoxyphenyl)ethyl]-N^4-(1-phenylethyl)pyrimidine-2,4-diamine] the value was 51 to 100 nM; for `C[C@H](Nc1cc(NCCc2ccc(N)cc2)ncn1)c1ccccc1` [N^4-[2-(4-Aminophenyl)ethyl]-N^6-[(1S)-1-phenylethyl]pyrimidine-4,6-diamine], 101 to 200 nM. Molecule `C[C@H](Nc1nc(N)nc(NCCc2cccc(O)c2)n1)c1ccccc1` [Compound 73, N^2-[2-(3-Hydroxyphenyl)ethyl]-N^4-[(1S)-1-phenylethyl]-1,3,5-triazine-2,4,6-triamine] came in with an IC50 of at most 50 nM.

For the molecule `CC(Nc1ccnc(NCCC2=CCCCC2)n1)c1ccccc1` (centres unmarked) [Compound 23, N^2-[2-(1-Cyclohexenyl)ethyl]-N^4-(1-phenylethyl)pyrimidine-2,4-diamine], the IC50 is at most 50 nM. For `Fc1cccc(CNc2ccnc(NCCOc3ccccc3)n2)c1` [N^4-(3-Fluorophenylmethyl)-N^2-(2-phenoxyethyl)pyrimidine-2,4-diamine], the IC50 was in the range of 51 to 100 nM. With `CC[C@H](Nc1ccnc(NCCOc2ccccc2)n1)c1ccccc1` [N^2-(2-Phenoxyethyl)-N^4-[(1S)-1-phenylpropyl]pyrimidine-2,4-diamine], the IC50 was at most 50 nM.

In turn, `CC(C)c1ccc(CNc2ccnc(NCCOc3ccccc3)n2)cc1` [N^4-[4-(1-Methylethyl)phenylmethyl]-N^2-(2-phenoxyethyl)pyrimidine-2,4-diamine] returned an IC50 of at most 50 nM. Take `CC[C@H](Nc1nc(N)nc(NCCOc2ccccc2)n1)c1ccccc1` [Compound 40, N^2-[2-(Phenoxy)ethyl]-N^4-[(1S)-1-phenylpropyl]-1,3,5-triazine-2,4,6-triamine]: the IC50 was in the range of 51 to 100 nM. The molecule `Cc1ccc(CCNc2nc(N)nc(N[C@@H](C)c3ccc([N+](=O)[O-])cc3)n2)cc1` [Compound 79, N^2-[2-(4-Methylphenyl)ethyl]-N^4-[(1S)-1-(4-nitrophenyl)ethyl]-1,3,5-triazine-2,4,6-triamine] yielded an IC50 of at most 50 nM. For `COc1cc(CCNc2nc(N)nc(N[C@@H](C)c3ccc([N+](=O)[O-])cc3)n2)ccc1O` [Compound 80, N^2-[2-(4-Hydroxy-3-methoxyphenyl)ethyl]-N^4-[(1S)-1-(4-nitrophenyl)ethyl]-1,3,5-triazine-2,4,6-triamine] the value was at most 50 nM; for `C[C@H](Nc1nc(N)nc(NCCOc2ccc(F)cc2)n1)c1ccc([N+](=O)[O-])cc1` [Compound 45, N^2-[2-(4-Fluorophenoxy)ethyl]-N^4-[(1S)-1-(4-nitrophenyl)ethyl]-1,3,5-triazine-2,4,6-triamine], 51 to 100 nM. For `Cc1ccc(CNc2ccnc(NCCc3ccccc3)n2)cc1Cl` [N^4-(3-Chloro-4-methylphenylmethyl)-N^2-(2-phenylethyl)pyrimidine-2,4-diamine] the value was 101 to 200 nM; for `CC(Nc1nc(N)nc(NC[C@@H]2C[C@H]2c2ccncc2)n1)c1ccccc1` (mixture of isomers) [(±)-trans-N-(1-Phenyl-ethyl)-N′-(2-pyridin-4-yl-cyclopropylmethyl)-[1,3,5]triazine-2,4,6-triamine], at most 50 nM; for `Fc1ccc(CNc2ccnc(NCCOc3ccccc3)n2)cc1C(F)(F)F` [N^4-[4-Fluoro-3-(trifluoromethyl)phenylmethyl]-N^2-(2-phenoxyethyl)pyrimidine-2,4-diamine], 51 to 100 nM. On to `Cc1cc(N[C@@H](C)c2ccccc2)nc(NCCc2cccc(C#N)c2)n1` [N^2-[2-(3-Cyanophenyl)ethyl]-6-methyl-N^4-[(1S)-1-phenylethyl]pyrimidine-2,4-diamine], for which the IC50 is at most 50 nM.
